Laboratory results: PMC5343495 (Scientific Reports, 2017)
“Also recorded” adds a separate entry of the source. Read-outs that look alike come from different tables or passages of the source. One block for each compound: values may come before it.

How the values were obtained:
[1] = target: T1, Thrombin from human plasma (Homo sapiens, UniProt P00734); experiment: SPR competitive binding assay of BBR with argatroban (ABA method, Biacore S200); conditions: 300 μM BBR; 30, 60 or 120 μM argatroban
T1 construct: Thrombin, a multifunctional serine protease generated by prothrombin cleavage; purchased Sigma-Aldrich Chemical Co. (St. Louis, MO, USA) T6884; host or cells: human plasma
Procedure: The response units were measured before the end of injection.

washed platelets = experiment: Inhibition of thrombin-induced platelet aggregation (turbidimetric method); type: cell-based, rabbits; conditions: BBR 0.83, 2.50 and 7.50 μM, 5 min at 37 °C, 0.5 U/ml thrombin
Procedure: PRP was obtained by centrifugation of collected blood at 190 g for 10 min. The platelets were isolated from PRP by centrifugation for 10 min at 650 g, resuspended and washed twice in Ca^2+-free Tyrode’s buffer (138 mM NaCl, 2.68 mM KCI, 11.9 mM NaHCO3, 0.36 mM NaH2PO4, 0.49 mM MgSO4, 5.5 mM glucose, pH7.5)[42]. Washed platelets were then resuspended in Tyrode’s buffer including 1.8 mM CaCl2 at a density of 2 × 10^7 platelets/ml.
Aggregation was initiated by the addition of 10 μL of thrombin (final concentrations of 0.5 U/ml). Aggregation was recorded at 37 °C for 5 min using a four-channel platelet aggregation analyser (LBY-NJ4, Beijing Precil Instrument Co., Ltd., China). Platelet aggregation inhibitory percentage was calculated using the following equation: Inhibitory percentage (%) = (1 − At/A0) × 100%. At is the platelet aggregation percentage of the test sample, and A0 is the platelet aggregation percentage of the control sample.

HEK293 cells = experiment: Luciferase-coupled ATP quantitative assay (CellTiter-Glo cytotoxicity); type: cell-based; conditions: incubation 24, 48 or 72 hours
Procedure: HEK293 cells were seeded at 5.0 × 10^3 per well into 96-well clear-bottom black plates and incubated in 5% CO2 at 37 °C overnight. […] Luminescence was determined with an Envision 2100 multilabel reader to detect viability following incubation with CellTiter-Glo reagent for 15 min.

thrombin [2] = target: T2, thrombin (Homo sapiens, UniProt P00734); experiment: Thrombin inhibition assay (SensoLyte 520 FRET substrate kit); type: biochemical; conditions: read-out: inhibition relative to the positive control
T2 construct: Thrombin, a multifunctional serine protease generated by prothrombin cleavage; purchased AnaSpec, Inc., San Jose, CA
Procedure: To evaluate the thrombin-inhibitory activity of the hits, a fluorescence assay utilizing a SensoLyte 520 Thrombin Activity Assay Kit (AnaSpec, Inc., San Jose, CA) was performed following the manufacturer’s instructions. This kit contained a novel 5-FAM/QXL 520 (fluorophore/quencher pair) FRET modified substrate (approximately 6 amino acids) that can be cleaved by thrombin at the Arg-Gly (R-G) site. The FRET substrate can be cleaved into two separate fragments, resulting in the release of 5-FAM fluorescence, which can be monitored at an excitation/emission = 490 nm/520 nm[37]. […]
Ten microlitres of compound solution (300 μM in assay buffer) and 40 μL thrombin solution (0.33 μg/ml in assay buffer) were sequentially added to each well of a black, flat- bottom, non-binding 96-well plate (Corning #3650, Corning, NY). […] After incubation, the fluorescence (excitation 490 nm, emission 520 nm) of each mixture was detected with a 2104 EnVision Multilabel Reader (PerkinElmer).
For enzymatic reaction, the thrombin solution treated with vehicle buffer alone was used as negative control. […] All fluorescence readings are taken into account in relative fluorescence units (RFU). The experimental data were analyzed by GraphPad Prism software (version 5, Graphpad Software Incorporation, USA).

[3] = target: T1, Thrombin from human plasma; experiment: SPR binding affinity measurement (Biacore T200, thrombin-immobilized CM5 chip)
Procedure: SPR binding studies were performed using a Biacore T200 biosensor system (GE Healthcare, Uppsala, Sweden).
Thrombin was diluted in 10 mM sodium acetate buffer at pH 5.0 and immobilized on a CM5 chip using an amine coupling kit. […] A total of 8419 RU of immobilized proteins was obtained. Sensor preparation and interaction analyses were performed at 25 °C in a PBS-P [10 mM phosphate buffer, 137 mM NaCl, 2.7 mM KCl, 0.05% P20 (pH 7.4)] running buffer containing 5% DMSO.
Solvent-correction procedures were included to compensate for any DMSO-related bulk refractive index variations. Reference flow cell without immobilized thrombin served as a non-specific binding control. Biacore traces were baseline subtracted and the signal was presented in sensorgrams and measured in RU. […] Equilibrium constants (KD) were calculated using the ‘affinity’ model in Biacore T200 evaluation software version 2.0.

thrombin [4] = target: T2, thrombin; set-up: method as in PMID 12646027, PMID 19674897, PMID 18674905, PMID 18289852, PMID 18052026; conditions: training set for pharmacophore generation; cited from earlier work
[5] = Table 2, SPR, immobilized thrombin, read-out: KD

inhibition at 30 µM (thrombin [2]): ≥ 50%
Compound: COc1ccc2cc3[n+](cc2c1OC)CCc1cc2c(cc1-3)OCO2 [BBR, Berberine]
competitive binding with argatroban to thrombin [1]: could bind to the same argartroban/thrombin interaction site | effect on thrombin-induced platelet aggregation (washed platelets): had the ability to inhibit thrombin-induced platelet aggregation; also recorded: significantly prevented platelet aggregation | cytotoxicity (HEK293 cells): no significant cytotoxicity; also recorded: without cytotoxicity

Compound: O=C(O)c1cc(O)c(O)c(O)c1 [Gallic acid]
Kd [3]: > 200 µM

Kd [3, 5]: > 200 µM
Compound: CC1(C)CCC[C@](C)([C@H]2CC[C@]3(C)[C@@H]2[C@H](O)C[C@@H]2[C@@]4(C)CC[C@H](O)C(C)(C)[C@@H]4[C@@H](O)C[C@]23C)O1 [Panaxatriol]

Kd [3, 5]: > 200 µM
Compound: O=C1c2ccccc2C(=O)c2c(O)c(O)cc(O)c21 [Hydroxyalizarin, reference compound]

Compound: NC1CCC(CNC(=O)C2CCCN2C(=O)C(N)C(c2ccccc2)c2ccccc2)CC1 (centres unmarked) [CHEMBL269744]
IC50 (thrombin [4]): 0.0001 µM
